From patent US4432973A, “Benzoyl- and α-hydroxybenzyl-phenyl-glycosides and application thereof in therapeutics” (Societe de Recherches Industrielles (S.O.R.I.), priority 1980, dated 1984) come the findings set out here.

Bounds are passed on as bounds.

Data set [1] is described as follows: Acute toxicity in the mouse by the I.P. route. The settings on record: for LD50: read-out: DL-50 (lethal dose involving the death of half of the animals). The class given is in vivo. From the text: The acute toxicity was studied in the mouse by the I.P. route. It is expressed in the form of DL-50 (lethal dose involving the death of half of the animals) or DL-0 (maximum non-lethal dose).

Data set [2] in a line: Veinous thrombosis: veinous anti-thrombus activity. The conditions noted are these: Rattus norvegicus, ip, 50 mg/kg IP, 4 to 5 hours after administration, read-out: Diminution of veinous thrombus. The class given is in vivo.
The nature of data set [3]: Anti-hypoxic activity: survival to hypoxia (nitrogen-oxygen 95:5). The class given is in vivo, mouse (Swiss male). The conditions noted are these: I.P., 1/10th of LD-50 or 100 mg/kg when LD-0 ≥ 800 mg/kg; up to 15 minutes; mouse. In outline:
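Groups of 20 male Swiss mice (20–30 g) received compound i.p. at 1/10 LD-50, or 100 mg/kg when LD-0 ≥800 mg/kg, then were placed in nitrogen-oxygen 95:5 v/v. Survival time was recorded up to 15 min and expressed as % survival versus untreated controls; Duxil reference given at 18 mg/kg i.p.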

The subject of data set [4] is blood platelet aggregation. Put plainly: Spontaneous aggregation: blood platelet anti-aggregation activity. The conditions noted are these: Platelet, t=5 hours, rat; for inhibition in vivo at 100 mg/kg: ip, 100 mg/kg I.P. It counts as in vivo, rat (adult male). The procedure: The technique used is that of Sanders described in Laboratory Animal Science 27 (No. 5), pages 757-761 (1977).
After administration at 100 mg/kg I.P. (unless specified to the contrary in Table V hereinbelow) of the product to be tested to adult male reproducing rats, two blood samples are taken, one on sodium citrate and the other on sodium citrate treated with formaldehyde at instant t=5 hours.
After centrifugation of the samples, a platelet count is made on the supernatant liquid. The spontaneous aggregation index according to Wu and Hook Stroke 6, 521-524 (1975) is expressed by the relation: [formula]

Data set [5] in a line: Anti-ulcer activity: ulcer caused by aspirin. It counts as in vivo, rat (male Wistar). The settings on record: 100 mg/kg I.P.; aspirin 192 mg/kg per os; standardised to control batch and cimetidine (index 1). The gist of the method: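 Male Wistar rats weighing 180 to 200 g were fasted from t=0, when they received a first dose of the test product. At t=18 hours they were given 2 ml of an ulcer-forming suspension of aspirin at 192 mg/kg per os, followed by a second dose of the product. At t=22 hours the animals were sacrificed and their ulcers graded: 1 for small point-like, 3 for more extensive, 9 for highly extensive or very deep. Scores were standardised against a control batch and against cimetidine, the reference, assigned index 1.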

A short description of data set [6]: Veinous thrombosis: veinous anti-thrombus activity. The conditions noted are these: Rattus norvegicus, ip, 100 mg/kg I.P., 4 to 5 hours after administration, read-out: Diminution of veinous thrombus. The class given is in vivo. The protocol: The technique used is similar to the one described by Peterson-Zucker in Thrombo.Diath.Haemorh. 23, 1, (1970).
An occlusive thrombus is created in the […] vena cava of a rat by the combined action of an endothelial alteration and a veinous stasis for 15 mins. and 4 to 5 hours after administration of the product to be tested (100 mg/kg I.P.).

With `Cc1ccc(C(O)c2cccc(O[C@@H]3OC[C@@H](O)[C@H](O)[C@H]3O)c2)cc1` (single isomer, unassigned) [Example 106], in data set [1] (in vivo, ip, I.P.), the LD50 was 500 mg/kg. Further, the inhibition in vivo at 50 mg/kg in data set [2] is no less than 50%.
In the case of `O=C(c1ccc(O[C@@H]2OC[C@@H](O)[C@H](O)[C@H]2O)cc1)c1ccc([N+](=O)[O-])cc1` [Example 1, [4-(4-nitrobenzoyl)-phenyl]-β-D-xylopyranoside], the “Survival (survival percentage to hypoxic aggression)” value in data set [3] was “+++ (higher than or equal to 80%)”. Moreover, in data set [1] (in vivo, ip), the “DL-0 (maximum non-lethal dose)” value was greater than 800 mg/kg IP. In data set [4], this compound registered an inhibition in vivo at 100 mg/kg of no less than 40%. Besides, in data set [5], the Ulcer index is on record as 0.56.
On to `Nc1ccc(C(=O)c2ccc(O[C@@H]3OC[C@@H](O)[C@H](O)[C@H]3O)cc2)cc1` [Example 8], for which the “Survival (survival percentage to hypoxic aggression)” value in data set [3] is given as “+++ (higher than or equal to 80%)”. In data set [1] (in vivo, ip), the “DL-0 (maximum non-lethal dose)” value is recorded as greater than 800 mg/kg IP. The inhibition in vivo at 100 mg/kg in data set [6] is no less than 50%; in data set [4], no less than 40%. Besides, in data set [5], the Ulcer index is reported as 0.25.
Take `Cc1ccc(C(=O)c2ccc(O[C@@H]3OC[C@@H](O)[C@H](O)[C@H]3O)cc2)cc1` [Example 12]: the “Survival (survival percentage to hypoxic aggression)” value in data set [3] was “++ (from 50 to 79%)”. The “DL-0 (maximum non-lethal dose)” value in data set [1] (in vivo, ip) is listed as greater than 800 mg/kg IP. In data set [4], the inhibition in vivo at 100 mg/kg was in the range of 25 to 39%. The same compound displayed a Ulcer index in data set [5] of 0.26.
For `Cc1ccccc1C(=O)c1ccc(O[C@@H]2OC[C@@H](O)[C@H](O)[C@H]2O)cc1` [Example 14], in data set [1] (in vivo, ip, I.P.), the LD50 was found to be 740 mg/kg. Also, the inhibition in vivo at 100 mg/kg in data set [6] was no less than 50%. The same compound registered an inhibition in vivo at 75 mg/kg in data set [4] (75 mg/kg IP) of no less than 40%.
Consider `COc1ccc(C(=O)c2cccc(O[C@@H]3OC[C@@H](O)[C@H](O)[C@H]3O)c2)cc1` [Example 54], for which the “DL-0 (maximum non-lethal dose)” value in data set [1] (I.P.) is given as greater than 800 mg/kg IP. The inhibition in vivo at 100 mg/kg is 30 to 49% in data set [6] and no less than 40% in data set [4]. The Ulcer index in data set [5] was determined as 0.57.
Taken in the same sequence, the figures for `CC(=O)N[C@H]1[C@H](Oc2ccc(C(=O)c3ccc(Cl)cc3)cc2)O[C@H](COS(=O)(=O)O)[C@@H](OS(=O)(=O)O)[C@@H]1OS(=O)(=O)O` [Example 67, [4-(4-chlorobenzoyl)-phenyl]-3,4,6-tri-(ammonium-sulfate)-2-N-acetyl-β-D-glucosaminide] were greater than 800 mg/kg IP, 30 to 49%, 25 to 39% and 0.81.
As for `O=[N+]([O-])c1ccc(C(O)c2ccc(O[C@@H]3OC[C@@H](O)[C@H](O)[C@H]3O)cc2)cc1` (stereo partly drawn) [Example 97, [4-(4-nitro-α-hydroxybenzyl)-phenyl]-β-D-xylopyranoside], the LD50 in data set [1] (in vivo, ip, I.P.) was greater than 1000 mg/kg. Also, the inhibition in vivo at 100 mg/kg in data set [6] was no less than 50%; in data set [4] it was no less than 40%. Further, in data set [5], the Ulcer index worked out at 0.52.
As for `Cc1cc(C(=O)c2ccccc2Cl)cc(C)c1O[C@@H]1OC[C@@H](O)[C@H](O)[C@H]1O` [Example 102], in data set [3], the “Survival (survival percentage to hypoxic aggression)” value is “+++ (higher than or equal to 80%)”. The “DL-0 (maximum non-lethal dose)” value in data set [1] (in vivo, ip) is greater than 800 mg/kg IP. The inhibition in vivo at 100 mg/kg is 30 to 49% in data set [6] and no less than 40% in data set [4]. The compound further had a Ulcer index in data set [5] of 0.49.
On to `CC(=O)O[C@@H]1[C@@H](OC(C)=O)[C@H](Oc2ccc(C(=O)c3ccc([N+](=O)[O-])cc3)cc2C)OC[C@H]1OC(C)=O` [Example 104], for which the “Survival (survival percentage to hypoxic aggression)” value in data set [3] is reported as “++ (from 50 to 79%)”. The “DL-0 (maximum non-lethal dose)” value in data set [1] (in vivo, ip) was greater than 800 mg/kg IP. In data set [4], this compound had an inhibition in vivo at 100 mg/kg of no less than 40%. Besides, in data set [5], the Ulcer index turned out to be 0.84.
As for `CC(=O)O[C@@H]1[C@@H](OC(C)=O)[C@H](Oc2c(C)cc(C(=O)c3ccc(Cl)cc3)cc2C)OC[C@H]1OC(C)=O` [Example 114], the “Survival (survival percentage to hypoxic aggression)” value in data set [3] was “++ (from 50 to 79%)”. Besides, the “DL-0 (maximum non-lethal dose)” value in data set [1] (in vivo, ip) is greater than 800 mg/kg IP. Also, in data set [4], the inhibition in vivo at 100 mg/kg fell in the range of 25 to 39%.
Regarding `CC(=O)N[C@H]1[C@H](Oc2ccc(C(=O)c3ccc(C(F)(F)F)cc3)cc2)O[C@H](CO)[C@@H](O)[C@@H]1O` [Example 118], the “Survival (survival percentage to hypoxic aggression)” value in data set [3] is reported as “++ (from 50 to 79%)”. For the same compound, the “DL-0 (maximum non-lethal dose)” value in data set [1] (in vivo, ip) is greater than 800 mg/kg IP. In data set [4], the inhibition in vivo at 100 mg/kg was 25 to 39%. In data set [5], this compound came in with a Ulcer index of 0.53.
